For one data set, the system named is CMA network. In words: Comparative transcriptomic analysis / qPCR of CMA network. In kind it is cell-based, mouse. The note with it: compared to AR7. As for the experimental part: mRNA-qPCR: RNA was extracted from individual retinas. Total RNA from retinas was extracted using TRIzol Reagent (Invitrogen), and reverse transcription performed using the High-Capacity cDNA Reverse Transcription Kit (Applied Biosystems) according to the manufacturer's instructions. Quantitative real-time PCR was performed in a Light Cycler 480 Instrument (Roche) with Taqman Universal PCR Master Mix using Taqman assays (Life Tech-nologies). The following probes were used: Mm01184405_m1 (rhodopsin), F-5′-CTTAGCTTCTGGGATGC CCC-3′, R-5′-[…]-3′ (lamp2a) F-5′-AA GGACTCCTA TAGTGGG TGACGA-3′, R-5′-[…]-3′ (mouse β-actin).
Microarray: Total RNA of the treated cells was extracted using TRIzol (Invitrogen) and purified with RNeasy chromatography (Qiagen). Cy3-labeled RNA (0.6 μg) from each condition were hybridized to Agilent Mouse 8×60K. Data were processed using the oligo package and normalized using Robust Multiarray Average (RMA) method. Gene set was filtered to remove genes without Entrez or GO annotation (21912 genes out of 55682) and genes with an […]. The full microarray Gomez-Sintes et al. raw data will be deposited in GEO upon acceptance of the manuscript. Pathway analysis was performed using the STRING database ([…]).
CMA index was calculated using data set from Ly (J. Proteome Research (2016) 15: 1350-1359), Gao (2020), and Lane (2020). Briefly, each element of the CMA network was attributed a weight. As LAMP-2A is the rate limiting component of CMA, it was given a weight of 2. Every other element received a weight of 1. Then, every element was attributed direction score that is +1 or −1 based on the known effect of a given element on CMA activity. The score was then calculated as the weighted/directed average of expression counts of every element of the CMA network.

Another data set relates to NIH3T3 cells. The following applies: previously reported; cited from earlier work.
Data set [1] can be described thus: In vitro stability in liver microsomes. The note with it: human liver microsomes. In kind it is in vitro ADME. As for the experimental part:
In vitro solubility in the following conditions A) HBSS/HEPES 10 mM/BSA 0.1% pH 6 B) HBSS/HEPES 10 mM/BSA 0.1% pH 7.4 C) TRIS/BSA 0.1% PBS (pH 7.4 and at indicated doses were measured by Nephelometry using the NEPHELOstar Galaxy apparatus (BMG Lab Technologies). In vitro stability in human, mouse and rat liver microsomes and permeability using a bidirectional permeability assay with CaCo-2 cells (pH 6.5/7.4) assays were performed with standard methodology and analyzed by LC-MS/MS. at SIMM-SERVIER joint Biopharmacy Laboratory. In silico ADME properties calculated by QikProp (Schrodinger, LLC) analysis and ADME predictions for CA39 (left) and CA77 (right).
For orientation: Liver microsomes are a subcellular fraction often used to study metabolism.

The subject of a further data set is KFERQ-Dendra mice. In words: CMA activation in vivo in KFERQ-Dendra mice. The arrangement: species or system mouse. The note with it: i.p. 30 mg/kg bw daily, three days. An excerpt: Animals: C57BL/6J mice wild-type (WT) and homozygous for the Pde6 mutation (rd10 mouse model of retinal degeneration) were obtained from The Jackson Laboratory. C57BL/6 KFERQ-Dendra mice were generated by back-crossing FVB KFERQ-Dendra mice with wild-type C57BL/6 mice for 8 generations. Both male and female animals were used in this study in equal distribution groups. However, results from both sexes were pooled, because of absence of significant differences in any of the parameters analyzed after statistical analysis with a mixed model of two-way ANOVA sex and treatment as independent variables and the corresponding measure as dependent variable. […]
CMA activity: Cells were transduced with lentivirus carrying the KFERQ-PS-Dendra reporter as before. […] Images were quantified using the manufacturer's software in a minimum of 1,200 cells in 9 independent fields per well. […] To avoid con-funding effects for drug-induced changes in cell volume or adherence to the plate that could bring a fraction of the cells per field outside of focus, we set a threshold to count only cells that have at least 1/10 of the average number of […] detected in the untreated wells for each cell type (3-4 puncta/cell in the case of NIH3T3 and N2a cells and 5 puncta/cell in primary human fibroblasts). […] Slices were mounted in DAPI-Fluoromount-G to highlight the cell nucleus and allow quantification of puncta per cell. […]

Here are results for two compounds from patent US20240207282A1, “METHOD OF INCREASING CHAPERONE MEDIATED AUTOPHAGY BY STABILIZING THE INTERACTION OF RETINOIC ACID RECEPTOR-ALPHA AND AN INHIBITOR” (ALBERT EINSTEIN COLLEGE OF MEDICINE, priority 2021, published 2024).

Structures are written as SMILES.

On to `Clc1ccc2c(c1)OCC(c1ccc(-c3ccccc3)cc1)=N2` [CA39], for which, in the data set with CMA network, the “predicted CMA activation score” value was “higher”. The toxicity result in the data set with NIH3T3 cells is recorded as “without noticeable toxicity”. The metabolic stability result in data set [1] is reported as “high to intermediate”. In addition, the “CMA activation in vivo” value in the data set with KFERQ-Dendra mice is “activate CMA with comparable potency in vivo both in peripheral blood cells and in multiple organs”.
`CC(=O)Nc1ccc(C2=Nc3ccc(Cl)cc3OC2)cc1` [CA77]: in the data set on CMA network, the “predicted CMA activation score” value is reported as “higher”. Also, in the data set on NIH3T3 cells, the toxicity entry was “without noticeable toxicity”. The metabolic stability result in data set [1] is “high to intermediate”. Moreover, the “CMA activation in vivo” value in the data set on KFERQ-Dendra mice was “activate CMA with comparable potency in vivo both in peripheral blood cells and in multiple organs”.
